Test results as given in US9303042B2, “Triazolothienopyrimidine compound inhibitors of urea transporters and methods of using inhibitors” (The Regents of the University of California, priority 2012, dated 2016).

Target: T1, UT-A1 (Rattus norvegicus, UniProt Q62668)
T1 construct: expressed in transfected cells; host or cells: MDCK cells (MDCK-UT-A1), obtained as described in cited literature
T1 sequence (Q62668 1-929): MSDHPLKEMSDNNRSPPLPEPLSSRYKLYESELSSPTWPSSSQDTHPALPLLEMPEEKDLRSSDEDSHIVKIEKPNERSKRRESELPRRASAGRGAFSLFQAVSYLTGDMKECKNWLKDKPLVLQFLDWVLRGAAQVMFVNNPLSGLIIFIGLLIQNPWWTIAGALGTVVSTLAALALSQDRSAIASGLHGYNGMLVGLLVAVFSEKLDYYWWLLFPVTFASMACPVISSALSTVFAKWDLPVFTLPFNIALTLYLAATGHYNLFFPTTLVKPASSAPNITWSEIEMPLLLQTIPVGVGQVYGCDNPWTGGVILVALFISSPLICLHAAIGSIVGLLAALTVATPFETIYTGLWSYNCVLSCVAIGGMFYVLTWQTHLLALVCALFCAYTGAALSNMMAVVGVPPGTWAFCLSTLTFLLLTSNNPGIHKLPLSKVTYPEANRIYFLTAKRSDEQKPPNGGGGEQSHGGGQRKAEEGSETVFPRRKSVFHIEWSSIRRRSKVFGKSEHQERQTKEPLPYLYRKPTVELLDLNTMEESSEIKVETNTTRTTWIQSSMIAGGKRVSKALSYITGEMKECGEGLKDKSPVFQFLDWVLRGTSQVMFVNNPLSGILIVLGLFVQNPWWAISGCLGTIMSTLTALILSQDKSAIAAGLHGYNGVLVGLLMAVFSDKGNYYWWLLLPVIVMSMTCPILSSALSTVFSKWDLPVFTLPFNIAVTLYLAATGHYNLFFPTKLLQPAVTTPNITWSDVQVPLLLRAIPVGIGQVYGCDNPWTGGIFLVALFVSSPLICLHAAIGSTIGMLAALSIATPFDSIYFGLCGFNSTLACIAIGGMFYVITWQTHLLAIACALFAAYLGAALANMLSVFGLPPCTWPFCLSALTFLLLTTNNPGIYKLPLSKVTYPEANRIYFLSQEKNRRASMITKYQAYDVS
Experiment: Transepithelial urea transport in MDCK cells stably expressing UT-A1
Type: cell-based
Conditions: UTBinh-14 10 μM, forskolin
Procedure: UT-B selectivity and cytotoxicity were studied. Because of sequence similarities between UT-B and UT-A isoforms, UT-A inhibition was measured. Transepithelial urea transport was measured in MDCK cells stably expressing UT-A1, UT-A3, and UT-B. UT-A1 and UT-A3 are cAMP-regulated urea transporters expressed in kidney tubule epithelia (see, e.g., Frohlich et al., Am. J. Physiol. Cell Physiol. 291:C600-606 (2006); Tickle et al., Am. J. Physiol. Regul. Integr. Comp Physiol 0.297: R323-329 (2009); Stewart et al., Am. J. Physiol. Renal Physiol. 292:F1157-63 (2006)). MDCK cells were cultured on collagen-coated porous filters for measurement of urea accumulation in the apical solution following addition of urea to the basolateral solution.
cDNAs encoding mouse UT-A3 and UT-B were cloned into pcDNA3.1 and used to generate stably transfected MDCK cell lines. MDCK cells stably expressing rat UT-A1 (MDCK-UT-A1) (see, e.g., Frohlich et al., supra) were obtained as described (see, e.g., Levin et al., FASEB J., supra). Cells were cultured in DMEM containing 10% FBS and 0.5 mg/mL G418. […] Urea flux in the basolateral-to-apical direction across unstimulated and forskolin-stimulated cell layers was measured in response to a 15-mM urea gradient. […]

CCc1ccc(S(=O)(=O)c2nnn3c2nc(NCc2cccs2)c2sccc23)cc1 [UTBinh-14, [3-(4-Ethyl-benzenesulfonyl)-thieno[2,3-e][1,2,3]triazolo[1,5-a]pyrimidin-5-yl]-thiophen-2-ylmethylamine]
inhibition of UT-A1 facilitated urea transport: little inhibition
